In brackets after ≈: the same amount, converted by molar mass.
Columns and labels:
Experiment in all cases: MIC, microdilution broth method (NCCLS)
Assay type in all cases: cell-based
[1] = system: S. pneumoniae ATCC49619; conditions: 35° C., 16-20 hours; for MIC: Streptococcus pneumoniae
Experimental: (§1) Minimal inhibitory concentration (MIC) has been an indicator of in vitro antibacterial activity widely used in the art. The in vitro antimicrobial activity of the compounds was determined by the microdilution broth method following the test method from the National Committee for Clinical Laboratory Standards (NCCLS). This method is described in the NCCLS Document M7-A4, Vol.17, No.2, “Methods for Dilution Antimicrobial Susceptibility Test for Bacteria that Grow Aerobically—Fourth Edition”, which is incorporated herein by reference.
(§2) In this method two-fold serial dilutions of drug in cation adjusted Mueller-Hinton broth are added to wells in microdilution trays. The test organisms are prepared by adjusting the turbidity of actively growing broth cultures so that the final concentration of test organism after it is added to the wells is approximately 5×10^4 CFU/well.
(§3) Following inoculation of the microdilution trays, the trays are incubated at 35° C. for 16-20 hours and then read. […] The amount of growth in the wells containing the test compound is compared with the amount of growth in the growth-control wells (no test compound) used in each tray. As set forth in Table 1, compounds of the present invention were tested against a variety of Gram positive and Gram negative pathogenic bacteria resulting in a range of activities depending on the organism tested.

[2] = system: S. aureus ATCC29213; conditions: 35° C., 16-20 hours; for MIC: Staphylococcus aureus
Experimental: as §1, §2, §3

[3] = system: E. faecalis ATCC29212; conditions: 35° C., 16-20 hours; for MIC: Enterococcus faecalis
Experimental: as §1, §2, §3

[4] = system: H. influenzae ATCC49247; conditions: 35° C., 16-20 hours; for MIC: Haemophilus influenzae
Experimental: as §1, §2, §3

[5] = system: E. coli OC2605; conditions: 35° C., 16-20 hours; for MIC: Escherichia coli
Experimental: as §1, §2, §3

Compound	MIC (μg/mL) D [1]	MIC (μg/mL) B [2]	MIC (μg/mL) C [3]	MIC (μg/mL) E [4]	MIC (μg/mL) A [5]	MIC [1]	MIC [2]	MIC [3]	MIC [4]	MIC [5]
CCC1OC(=O)C(C)C(=O)C(C)C(OC2OC(C)CC(N(C)C)C2O)C(C)(OC(N)=O)CC(C)C(=O)C(C)C2CC(=O)OC12C (stereo not shown) [Compound 1]	0.5 µg/mL (≈ 0.78 µM)	8 µg/mL (≈ 12.5 µM)	2 µg/mL (≈ 3.12 µM)	>16 µg/mL	>16 µg/mL					
CCC1OC(=O)C(C)C(=O)C(C)C(OC2OC(C)CC(N(C)C)C2O)C(C)(OC(=O)NCc2ccc(-c3cncnc3)cc2)CC(C)C(=O)C(C)C2CC(=O)OC12C (stereo not shown) [Compound 2]	0.06 µg/mL (≈ 0.0742 µM)	1 µg/mL (≈ 1.24 µM)	0.12 µg/mL (≈ 0.148 µM)	16 µg/mL (≈ 19.8 µM)	>16 µg/mL					
CCC1OC(=O)C(C)C(=O)C(C)C(OC2OC(C)CC(N(C)C)C2O)C(C)(OC(=O)NCc2ccc3ncccc3c2)CC(C)C(=O)C(C)C2CC(=O)OC12C (stereo not shown) [Compound 3]	0.06 µg/mL (≈ 0.0767 µM)	1 µg/mL (≈ 1.28 µM)	0.25 µg/mL (≈ 0.32 µM)	8 µg/mL (≈ 10.2 µM)	>16 µg/mL					
CCC1OC(=O)C(C)C(=O)C(C)C(OC2OC(C)CC(N(C)C)C2O)C(C)(OC(=O)NCc2ccc(C(=O)O)cc2)CC(C)C(=O)C(C)C2CC(=O)OC12C (stereo not shown) [Compound 4]	1 µg/mL (≈ 1.29 µM)	>16 µg/mL	8 µg/mL (≈ 10.3 µM)	>16 µg/mL	>16 µg/mL					
CCC1OC(=O)C(C)C(=O)C(C)C(OC2OC(C)CC(N(C)C)C2O)C(C)(OC(=O)NCC=Cc2cnc3ccccc3c2)CC(C)C(=O)C(C)C2CC(=O)OC12C (stereo not shown) [Compound 5]	0.03 µg/mL (≈ 0.0371 µM)	0.5 µg/mL (≈ 0.619 µM)	0.06 µg/mL (≈ 0.0743 µM)	16 µg/mL (≈ 19.8 µM)	16 µg/mL (≈ 19.8 µM)					
CCC1OC(=O)C(C)C(=O)C(C)C(OC2OC(C)CC(N(C)C)C2O)C(C)(OC(=O)NCC=Cc2ccc(-c3ccccn3)cc2)CC(C)C(=O)C(C)C2C(OC)C(=O)OC12C (stereo not shown) [Compound 6]	0.25 µg/mL (≈ 0.289 µM)	1 µg/mL (≈ 1.16 µM)	1 µg/mL (≈ 1.16 µM)	8 µg/mL (≈ 9.26 µM)	>16 µg/mL					
CC[C@H]1OC(=O)[C@H](C)C(=O)[C@H](C)[C@@H](OC2O[C@H](C)C[C@H](N(C)C)[C@H]2O)[C@](C)(OC(=O)NC/C=C/c2ccc(-c3ncccn3)cc2)C[C@@H](C)C(=O)C(C)C2CC(=O)O[C@@]21C (stereo partly shown) [Compound 7]						0.06 µg/mL (≈ 0.0719 µM)	0.25 µg/mL (≈ 0.299 µM)	0.12 µg/mL (≈ 0.144 µM)	8 µg/mL (≈ 9.58 µM)	> 16 µg/mL
CCC1OC(=O)C(C)C(=O)C(C)C(OC2OC(C)CC(N(C)C)C2O)C(C)(OC(=O)NCC=Cc2ccc(-c3cncnc3)cc2)CC(C)C(=O)C(C)C2CC(=O)OC12C (stereo not shown) [Compound 9]	0.06 µg/mL (≈ 0.0719 µM)	0.5 µg/mL (≈ 0.599 µM)	0.25 µg/mL (≈ 0.299 µM)	8 µg/mL (≈ 9.58 µM)	>16 µg/mL					
CCC1OC(=O)C(C)C(=O)C(C)C(OC2OC(C)CC(N(C)C)C2O)C(C)(OC(=O)NCC=Cc2ccc3cccnc3c2)CC(C)C(=O)C(C)C2C(OC)C(=O)OC12C (stereo not shown) [Compound 10]	0.12 µg/mL (≈ 0.143 µM)	1 µg/mL (≈ 1.19 µM)	0.5 µg/mL (≈ 0.597 µM)	8 µg/mL (≈ 9.55 µM)	>16 µg/mL					
CCC1OC(=O)C(C)C(=O)C(C)C(OC2OC(C)CC(N(C)C)C2O)C(C)(OC(=O)NCC=Cc2cncc(-c3ccccn3)c2)CC(C)C(=O)C(C)C2CC(=O)OC12C (stereo not shown) [Compound 11]	0.06 µg/mL (≈ 0.0719 µM)	0.5 µg/mL (≈ 0.599 µM)	0.12 µg/mL (≈ 0.144 µM)	4 µg/mL (≈ 4.79 µM)	>16 µg/mL					
CCC1OC(=O)C(C)C(=O)C(C)C(OC2OC(C)CC(N(C)C)C2O)C(C)(OC(=O)N(CC=Cc2cncc(-c3ccccn3)c2)CC=Cc2cncc(-c3ccccn3)c2)CC(C)C(=O)C(C)C2CC(=O)OC12C (stereo not shown) [Compound 12]	0.12 µg/mL (≈ 0.117 µM)	2 µg/mL (≈ 1.94 µM)	0.5 µg/mL (≈ 0.486 µM)	16 µg/mL (≈ 15.5 µM)	>16 µg/mL					
CCC1OC(=O)C(C)C(=O)C(C)C(OC2OC(C)CC(N(C)C)C2O)C(C)(OC(=O)NCC=Cc2cccc(-c3ccccn3)c2)CC(C)C(=O)C(C)C2CC(=O)OC12C (stereo not shown) [Compound 13]	0.06 µg/mL (≈ 0.0719 µM)	1 µg/mL (≈ 1.2 µM)	0.25 µg/mL (≈ 0.3 µM)	4 µg/mL (≈ 4.8 µM)	>16 µg/mL					
CCC1OC(=O)C(C)C(=O)C(C)C(OC2OC(C)CC(N(C)C)C2O)C(C)(OC(=O)NCC=Cc2cccc(-c3cccnc3)c2)CC(C)C(=O)C(C)C2CC(=O)OC12C (stereo not shown) [Compound 14]	0.12 µg/mL (≈ 0.144 µM)	2 µg/mL (≈ 2.4 µM)	0.5 µg/mL (≈ 0.6 µM)	8 µg/mL (≈ 9.59 µM)	>16 µg/mL					
CCC1OC(=O)C(C)C(=O)C(C)C(OC2OC(C)CC(N(C)C)C2O)C(C)(OC(=O)NCC=Cc2ccc(-c3ccccn3)cc2)CC(C)C(=O)C(C)C2CC(=O)OC12C (stereo not shown) [Compound 15]	0.12 µg/mL (≈ 0.144 µM)	1 µg/mL (≈ 1.2 µM)	0.25 µg/mL (≈ 0.3 µM)	8 µg/mL (≈ 9.59 µM)	>16 µg/mL					
CC[C@H]1OC(=O)[C@H](C)C(=O)[C@H](C)[C@@H](O[C@@H]2O[C@H](C)C[C@H](N(C)C)[C@H]2O)[C@](C)(OC(=O)NC/C=C/c2ccc(-n3cnnc3)cc2)C[C@@H](C)C(=O)C(C)[C@H]2CC(=O)O[C@@]21C (stereo partly shown) [Compound 16]	0.06 µg/mL (≈ 0.0728 µM)	0.5 µg/mL (≈ 0.607 µM)	0.25 µg/mL (≈ 0.303 µM)	4 µg/mL (≈ 4.85 µM)	16 µg/mL (≈ 19.4 µM)					
CC[C@H]1OC(=O)[C@H](C)C(=O)[C@H](C)[C@@H](OC2O[C@H](C)C[C@H](N(C)C)[C@H]2O)[C@](C)(OC(=O)NC/C=C/c2cn(-c3cnccn3)cn2)C[C@@H](C)C(=O)C(C)C2CC(=O)O[C@@]21C (stereo partly shown) [Compound 17]						0.06 µg/mL (≈ 0.0727 µM)	0.5 µg/mL (≈ 0.606 µM)	0.12 µg/mL (≈ 0.145 µM)	4 µg/mL (≈ 4.85 µM)	> 16 µg/mL
CCC1OC(=O)C(C)C(=O)C(C)C(OC2OC(C)CC(N(C)C)C2O)C(C)(OC(=O)NCC#Cc2cccnc2)CC(C)C(=O)C(C)C2CC(=O)OC12C (stereo not shown) [Compound 18]	0.12 µg/mL (≈ 0.159 µM)	2 µg/mL (≈ 2.65 µM)	0.5 µg/mL (≈ 0.661 µM)	8 µg/mL (≈ 10.6 µM)	>16 µg/mL					
CCC1OC(=O)C(C)C(=O)C(C)C(OC2OC(C)CC(N(C)C)C2O)C(C)(OC(=O)NCc2ccccc2)CC(C)C(=O)C(C)C2CC(=O)OC12C (stereo not shown) [Compound 19]	0.25 µg/mL (≈ 0.342 µM)	16 µg/mL (≈ 21.9 µM)	1 µg/mL (≈ 1.37 µM)	>16 µg/mL	>16 µg/mL					
CCC1OC(=O)C(C)C(=O)C(C)C(OC2OC(C)CC(N(C)C)C2O)C(C)(OC(=O)NCc2ccc(Br)cc2)CC(C)C(=O)C(C)C2CC(=O)OC12C (stereo not shown) [Compound 20]	0.12 µg/mL (≈ 0.148 µM)	2 µg/mL (≈ 2.47 µM)	0.5 µg/mL (≈ 0.617 µM)	16 µg/mL (≈ 19.8 µM)	>16 µg/mL					
CCC1OC(=O)C(C)C(=O)C(C)C(OC2OC(C)CC(N(C)C)C2O)C(C)(OC(=O)NCc2ccc(C=Cc3ccccc3)cc2)CC(C)C(=O)C(C)C2CC(=O)OC12C (stereo not shown) [Compound 21]	0.25 µg/mL (≈ 0.3 µM)	2 µg/mL (≈ 2.4 µM)	1 µg/mL (≈ 1.2 µM)	8 µg/mL (≈ 9.6 µM)	>16 µg/mL					
CCC1OC(=O)C(C)C(=O)C(C)C(OC2OC(C)CC(N(C)C)C2O)C(C)(OC(=O)NCC=Cc2ccc(Br)cc2)CC(C)C(=O)C(C)C2CC(=O)OC12C (stereo not shown) [Compound 22]	0.06 µg/mL (≈ 0.0718 µM)	1 µg/mL (≈ 1.2 µM)	0.25 µg/mL (≈ 0.299 µM)	4 µg/mL (≈ 4.79 µM)	16 µg/mL (≈ 19.1 µM)					
CCC1OC(=O)C(C)C(=O)C(C)C(OC2OC(C)CC(N(C)C)C2O)C(C)(OC(=O)N(CC=Cc2ccc(Br)cc2)CC=Cc2ccc(Br)cc2)CC(C)C(=O)C(C)C2CC(=O)OC12C (stereo not shown) [Compound 23]	2 µg/mL (≈ 1.94 µM)	8 µg/mL (≈ 7.76 µM)	2 µg/mL (≈ 1.94 µM)	>16 µg/mL	>16 µg/mL					
CCC1OC(=O)C(C)C(=O)C(C)C(OC2OC(C)CC(N(C)C)C2O)C(C)(OC(=O)NCc2ccc(-c3ccccn3)cc2)CC(C)C(=O)C(C)C2CC(=O)OC12C (stereo not shown) [Compound 26]	0.06 µg/mL (≈ 0.0743 µM)	1 µg/mL (≈ 1.24 µM)	0.12 µg/mL (≈ 0.149 µM)	8 µg/mL (≈ 9.9 µM)	>16 µg/mL					
CCC1OC(=O)C(C)C(=O)C(C)C(OC2OC(C)CC(N(C)C)C2O)C(C)(OC(=O)NCC=Cc2ccc3ncccc3c2)CC(C)C(=O)C(C)C2CC(=O)OC12C (stereo not shown) [Compound 27]	0.03 µg/mL (≈ 0.0371 µM)	0.5 µg/mL (≈ 0.619 µM)	0.06 µg/mL (≈ 0.0743 µM)	1 µg/mL (≈ 1.24 µM)	16 µg/mL (≈ 19.8 µM)					
CC[C@H]1OC(=O)[C@H](C)C(=O)[C@H](C)[C@@H](OC2O[C@H](C)C[C@H](N(C)C)[C@H]2O)[C@](C)(OC(=O)NC/C=C/c2cncc3ccccc23)C[C@@H](C)C(=O)C(C)C2CC(=O)O[C@@]21C (stereo partly shown) [Compound 30]							0.25 µg/mL (≈ 0.309 µM)	0.12 µg/mL (≈ 0.149 µM)	2 µg/mL (≈ 2.48 µM)	16 µg/mL (≈ 19.8 µM)
